How the values were obtained:
Lp-PLA2 [1] = biological target: T1, Lp-PLA2 (Homo sapiens, UniProt Q13093); experiment: Effects of coexisting substances, reagents of invention; assay type: biochemical; settings: for measurement value as percentage of sample with added water: J042 + water = 100%, concentrations as printed in the sample names; for Lp-PLA2 activity value / absorbance change per minute: pooled serum J042 mixed 9:1 with: Bil-C 20 mg/dL, Bil-F 20 mg/dL, hemolytic Hb 500 mg/dL, chyle 1400 FTU, Intralipos 1%, ascorbic acid 50 mg/dL
T1 construct: Individual serum No. 16, individual serum No. 78; from tissue; host or cells: serum and plasma (individual sera, pooled sera, heparin and citrated pooled plasma)
T1 sequence (Q13093 22-441): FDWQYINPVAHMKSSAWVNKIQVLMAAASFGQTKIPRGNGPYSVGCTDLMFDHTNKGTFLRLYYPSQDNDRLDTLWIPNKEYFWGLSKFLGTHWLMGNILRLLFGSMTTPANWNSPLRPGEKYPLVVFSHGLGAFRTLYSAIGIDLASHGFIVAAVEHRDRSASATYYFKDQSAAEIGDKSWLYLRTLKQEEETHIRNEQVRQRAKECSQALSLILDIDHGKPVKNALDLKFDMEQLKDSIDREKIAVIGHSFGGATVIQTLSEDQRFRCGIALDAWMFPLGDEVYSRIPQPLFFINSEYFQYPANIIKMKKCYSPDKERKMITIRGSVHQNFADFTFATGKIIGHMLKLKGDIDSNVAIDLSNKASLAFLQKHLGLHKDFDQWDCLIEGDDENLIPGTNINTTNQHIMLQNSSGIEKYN
Text: (§1) The reagent compositions were the same as in Example 17.
(§2) The absorbance change values per minute (ΔmAbs/min) and activity values (nmol/min/mL and U/L) with each kind of reagent are shown in Tables 43 to 45. Given 100% as the measurement value of the sample with the added water, the measurement values for the other samples are shown as percentages.

Lp-PLA2 [2] = biological target: T1, Lp-PLA2; experiment: Effects of coexisting substances, Lp-PLA2 FS; assay type: biochemical; settings: for Lp-PLA2 activity value / ΔmAbs/min: coexisting substance added 1:9 to pooled serum J042; for measurement value as percentage of sample with added water (100%): pooled serum J042 plus coexisting substance vs J042 + water
Text: as §1, §2

Lp-PLA2 [3] = biological target: T1, Lp-PLA2; experiment: Effects of coexisting substances, PLAC Test; assay type: biochemical; settings: for Lp-PLA2 activity value / ΔmAbs/min: coexisting substance added 1:9 to pooled serum J042; for measurement value as percentage of sample with added water (100%): pooled serum J042 plus coexisting substance vs J042 + water
Text: as §1, §2

[4] = neutral pH; cited from earlier work
[5] = Specificity of recombinant lyso-PAF-PLD: PLD activity against lyso-PAF; assay type: biochemical; settings: 0 to 0.5 mM lyso-PAF (C16); […] enzyme in R2
Description: (§3) To investigate the specificity of the recombinant lyso-PAF-PLD purified in Reference Example 3, activity against PAF(C16) and lyso-PAF(C16) was studied. The reagent compositions are as follows.
(§4) 5 μL samples containing PAF(C16) or lyso-PAF(C16) at concentrations of 0, 0.1, 0.2, 0.3, 0.4 or 0.5 mM were each incubated for 5 minutes at 37° C. with 15 μL of the R1 reagent (measuring points 1 to 15), after which 50 μL of the R2 reagent was added and reacted for 5 minutes (measuring points 16 to 31).

[6] = Specificity of recombinant lyso-PAF-PLD: PLD activity against PAF; assay type: biochemical; settings: 0 to 0.5 mM PAF (C16); […] enzyme in R2
Description: as §3, §4

[7] = Thermal stability test of lyso-PAF-PLD (residual activity); assay type: physicochemical; settings: incubated 60 minutes in 20 mM Tris-HCl (pH 7.5)
Description: The purified lyso-PAF-PLD was incubated for 60 minutes at different temperatures in a 20 mM Tris-HCl (pH 7.5) solution, and residual activity was investigated with the following reaction solution. C18(Plasm) LPC (Product No. 852465P, Avanti Polar Lipids, Inc.) was used as the substrate.
50 μL of the reaction solution was pre-incubated for 5 minutes at 37° C., 5 μL of the enzyme solution was added, and an enzyme reaction was performed for 1 minute at […]. 200 μL of the color developing solution was then added and reacted for 10 minutes at 37° C., after which absorbance was measured at 550 nm. The activity value was calculated according to the following formula.

[8] = PLD activity (kcat/Km) of lyso-PAF-PLD and site-specific mutants against lyso-PAF; assay type: biochemical; settings: substrate lyso-PAF 0 to 5 mM, pH 7.5, 37° C.
Description: As a result, the pre-mutation PLD activity was 1385 (s^−1 mM^−1), but the mutant having G substituted for the M in the 45th position of SEQ ID NO: 9 (called M45G) and the similarly-named mutants M45A, M45L and M45D had PLD activities of 3059, 11411, 3284 and 4557 (s^−1mM^−1), respectively.
As a result, the PLD activity was 1385 (s^−1mM^−1) before the mutation, but the mutant having G substituted for F in the 257th position of […] (called F257G) and the similarly-named mutants F257E, F257R, F257K and F257W had PLD activities 1200, 1000, 1080, 1020 and 1320, respectively.
The PLD activity of the lyso-PAF-PLD mutants obtained by site-specific mutations was measured as follows. 1.211 g of Tris, 14.7 mg of calcium chloride dihydrate (Wako Pure Chemical Industries, Ltd.), 20 mL of lyso-PAF solution and 2 mL of 1% TODB solution were dissolved in 60 mL of purified water, the pH was adjusted to 7.5 (25° C.) with 1 N HCl, 4 mL of 100 U/mL choline oxidase, 4 mL of 100 U/mL peroxidase solution and 2 mL of 1% 4-AA solution were added and dissolved, and the total was brought to 100 mL with purified water to obtain a PLD activity measurement reagent for lyso-PAF (reaction reagent mixture). The lyso-PAF solution was adjusted so that the lyso-PAF concentration in the reaction reagent mixture was 0 to 5 mM. 3 mL of the reaction reagent mixture was pre-heated for 5 minutes at 37° C., and mixed with 50 μL of a solution of the lyso-PAF-PLD mutant with the introduced site-specific mutation diluted appropriately with 10 mM Tris-HCl (pH 7.5) to initiate a reaction, and the change in absorbance at 546 nm was measured for 1 minute between 8 and 9 minutes after initiation of the reaction. The activity value (μmole/min) was calculated given 36 (cm^2/μmole) as the millimolar extinction coefficient of the quinoneimine dye at 546 nm. The protein content (mg/mL) was calculated by the Bradford method using bovine serum albumin as the standard. Km and kcat were calculated by the Michaelis-Menten formula in accordance with the methods described in the aforementioned Theory and Practice on Enzymes and other Proteins [Tanpakushitsu/Kouso no kiso jikkenhou] and in Voet's Basic Biochemistry (Fourth Ed.) and the like. For purposes of calculation, the molecular weight of the enzyme was given as 33583.

C=CC1=C(C)/C(=C/c2[nH]c(Cc3[nH]c(/C=C4\NC(=O)C(C)=C4C=C)c(C)c3CCC(=O)O)c(CCC(=O)O)c2C)NC1=O [Bil-F]
measurement value as percentage of sample with added water (Lp-PLA2 [1]): 101% | Lp-PLA2 activity value (Lp-PLA2 [1]): 31.3 nmol/min/mL | absorbance change per minute (Lp-PLA2 [1]): 22.1 ΔmAbs/min | Lp-PLA2 activity value (Lp-PLA2 [2]): 351.0 U/L | ΔmAbs/min (Lp-PLA2 [2]): 29.4 ΔmAbs/min | measurement value as percentage of sample with added water (100%) (Lp-PLA2 [2]): 102% | Lp-PLA2 activity value (Lp-PLA2 [3]): 145.5 nmol/min/mL | ΔmAbs/min (Lp-PLA2 [3]): 188.4 ΔmAbs/min | measurement value as percentage of sample with added water (100%) (Lp-PLA2 [3]): 105%

O=C1O[C@H]([C@@H](O)CO)C(O)=C1O [ascorbic acid, L(+)-Ascorbic acid]
measurement value as percentage of sample with added water (Lp-PLA2 [1]): 96% | Lp-PLA2 activity value (Lp-PLA2 [1]): 29.6 nmol/min/mL | absorbance change per minute (Lp-PLA2 [1]): 20.9 ΔmAbs/min | Lp-PLA2 activity value (Lp-PLA2 [2]): 343.5 U/L | ΔmAbs/min (Lp-PLA2 [2]): 28.8 ΔmAbs/min | measurement value as percentage of sample with added water (100%) (Lp-PLA2 [2]): 100% | Lp-PLA2 activity value (Lp-PLA2 [3]): 138.1 nmol/min/mL | ΔmAbs/min (Lp-PLA2 [3]): 181.0 ΔmAbs/min | measurement value as percentage of sample with added water (100%) (Lp-PLA2 [3]): 99%

CCCCCCCCCCCCCC(=O)OCC(COP(=O)([O-])OCC[N+](C)(C)C)OC(=O)CCC(=O)Oc1ccc([N+](=O)[O-])cc1 (stereo not drawn) [1-myristoyl-2-(4-nitrophenylsuccinyl)phosphatidylcholine]
water solubility [4]: poor water solubility at neutral pH values

B1: lyso-PAF-PLD: recombinant enzyme from Thermocrispum sp. NITE BP-01628, SEQ ID NO: 9, PLD activity against lyso-PAF but not PAF (protein)
chain: MTTRTTDNPWLDARVLNMAHAGGENEAPANTLYAFKRAVKLGANMLELDVQSTKDDQLVVIHNATVDQTTDGTGKVRDLTFEQVHELDAAYNFIPGRHAVPGEPPESYPLRGVRTGEKKPPPGYQPSDFAIPKLADVLEAFPRTPINIEIKGTSDADIPSFLHNAKLLARLLKKTGRTDFIVTSFNDLAVAKFHLLAPDIPIAPGMAGLAAYFLLGVKPMHGTVALQIPVRYQGLEIATPEFIRRAHADGYAVHVWFSGTAPDDEATYNRIIDSCADGLMPAYPALLERILDERGIERPGRPGVDPCG
PLD activity against lyso-PAF [5]: exhibits PLD activity only against lyso-PAF | PLD activity against PAF [6]: not against PAF | thermal stability (residual activity) [7]: not inactivated by storage at 20 to 60 °C

B2: M45L: lyso-PAF-PLD mutant, L substituted for M in the 45th position of SEQ ID NO: 9 (protein)
chain: MTTRTTDNPWLDARVLNMAHAGGENEAPANTLYAFKRAVKLGANLLELDVQSTKDDQLVVIHNATVDQTTDGTGKVRDLTFEQVHELDAAYNFIPGRHAVPGEPPESYPLRGVRTGEKKPPPGYQPSDFAIPKLADVLEAFPRTPINIEIKGTSDADIPSFLHNAKLLARLLKKTGRTDFIVTSFNDLAVAKFHLLAPDIPIAPGMAGLAAYFLLGVKPMHGTVALQIPVRYQGLEIATPEFIRRAHADGYAVHVWFSGTAPDDEATYNRIIDSCADGLMPAYPALLERILDERGIERPGRPGVDPCG
Km [8]: 23 µM | kcat [8]: 147 s⁻¹

B3: M45G: lyso-PAF-PLD mutant, G substituted for M in the 45th position of SEQ ID NO: 9 (protein)
chain: MTTRTTDNPWLDARVLNMAHAGGENEAPANTLYAFKRAVKLGANGLELDVQSTKDDQLVVIHNATVDQTTDGTGKVRDLTFEQVHELDAAYNFIPGRHAVPGEPPESYPLRGVRTGEKKPPPGYQPSDFAIPKLADVLEAFPRTPINIEIKGTSDADIPSFLHNAKLLARLLKKTGRTDFIVTSFNDLAVAKFHLLAPDIPIAPGMAGLAAYFLLGVKPMHGTVALQIPVRYQGLEIATPEFIRRAHADGYAVHVWFSGTAPDDEATYNRIIDSCADGLMPAYPALLERILDERGIERPGRPGVDPCG
Km [8]: 27 µM | kcat [8]: 82 s⁻¹

B4: M45A: lyso-PAF-PLD mutant, A substituted for M in the 45th position of SEQ ID NO: 9 (protein)
chain: MTTRTTDNPWLDARVLNMAHAGGENEAPANTLYAFKRAVKLGANALELDVQSTKDDQLVVIHNATVDQTTDGTGKVRDLTFEQVHELDAAYNFIPGRHAVPGEPPESYPLRGVRTGEKKPPPGYQPSDFAIPKLADVLEAFPRTPINIEIKGTSDADIPSFLHNAKLLARLLKKTGRTDFIVTSFNDLAVAKFHLLAPDIPIAPGMAGLAAYFLLGVKPMHGTVALQIPVRYQGLEIATPEFIRRAHADGYAVHVWFSGTAPDDEATYNRIIDSCADGLMPAYPALLERILDERGIERPGRPGVDPCG
Km [8]: 12 µM | kcat [8]: 136 s⁻¹

B5: M45D: lyso-PAF-PLD mutant, D substituted for M in the 45th position of SEQ ID NO: 9 (protein)
chain: MTTRTTDNPWLDARVLNMAHAGGENEAPANTLYAFKRAVKLGANDLELDVQSTKDDQLVVIHNATVDQTTDGTGKVRDLTFEQVHELDAAYNFIPGRHAVPGEPPESYPLRGVRTGEKKPPPGYQPSDFAIPKLADVLEAFPRTPINIEIKGTSDADIPSFLHNAKLLARLLKKTGRTDFIVTSFNDLAVAKFHLLAPDIPIAPGMAGLAAYFLLGVKPMHGTVALQIPVRYQGLEIATPEFIRRAHADGYAVHVWFSGTAPDDEATYNRIIDSCADGLMPAYPALLERILDERGIERPGRPGVDPCG
Km [8]: 34 µM | kcat [8]: 157 s⁻¹

From patent US10900063B2, “Measurement of Lp-PLA2 activity” (ASAHI KASEI PHARMA CORPORATION, priority 2016, dated 2021)
